Test results reported in patent publication US10989719B2, “Methods for treating spinocerebellar ataxia type I using RPA1” (National University Corporation Tokyo Medical and Dental …, priority 2013, dated 2021).
“Also recorded” adds a separate entry of the source.

Tested on: OK6>SCA1 flies
Test: Chemical therapy on hSCA1 Drosophila: lifespan on medium supplemented with CHK1 inhibitor
Format: in vivo
Details: adult flies
Protocol: FIG. 29 is a graph showing the results of a lifespan analysis of OK6>SCA1 flies fed on media supplemented with a CHK1 inhibitor (CHIR-124). The statistical analysis of the average values of the lifespan was performed by log-rank test.
A CHK1-specific inhibitor, CHIR-124 (manufactured by AXON MEDCHEM), was dissolved at 5 mg/mL in 1N hydrogen chloride and diluted to multiple concentrations with 0.05 N solution. Note that the medium used here was a 1:1 mixture of Instant Drosophila medium D7670 (manufactured by Sigma Aldrich) and Formula 4-24 Instant Drosophila medium (manufactured by Calolina). As a control, a medium to which an equal amount of 0.05 N hydrogen chloride solution was added was also prepared.
In this respect, whether or not the inhibition of a signal mediated by CHK1 mitigates the lifespan shortening in the SCA1 fly model was examined. Specifically, a CHK1-specific inhibitor (CHIR-124) was used. This inhibitor was added to feed (corn-meal medium) at multiple concentrations, and adult flies were fed on the feed. As a result, the lifespan of OK6>SCA1 was improved at 0.00016 mg/mL and 0.02 mg/mL (see FIG. 29). In addition, the improvement effect was more remarkable in an example where the inhibitor was given at a higher concentration. The lifespan of the flies treated with CHIR-124 at 0.02 mg/mL was elongated by 35% (see FIG. 29).

O=c1[nH]c2ccc(Cl)cc2c(N[C@@H]2CN3CCC2CC3)c1-c1nc2ccccc2[nH]1 [CHIR-124, 4-[((3S)-1-azabicyclo[2.2.2]oct-3-yl)amino]-3-(1H-benzimidazol-2-yl)-6-chloroquinolin-2(1H)-one]
lifespan of OK6>SCA1 (0.00016 mg/mL in feed): improved
lifespan elongation (0.02 mg/mL in feed): 35%
lifespan of OK6>SCA1 (0.02 mg/mL in feed): ameliorated the lifespan-shortening; also recorded: improved
